BindingDB's records for doi:10.1021/acs.jmedchem.3c00963 (n/a, 2023)

Molecular target: Dual specificity protein kinase TTK (Mus musculus) (UniProt P35761)
Assay: Inhibition of mouse MPS1

Chain of Dual specificity protein kinase TTK (Mus musculus) (P35761 whole entry, looked up): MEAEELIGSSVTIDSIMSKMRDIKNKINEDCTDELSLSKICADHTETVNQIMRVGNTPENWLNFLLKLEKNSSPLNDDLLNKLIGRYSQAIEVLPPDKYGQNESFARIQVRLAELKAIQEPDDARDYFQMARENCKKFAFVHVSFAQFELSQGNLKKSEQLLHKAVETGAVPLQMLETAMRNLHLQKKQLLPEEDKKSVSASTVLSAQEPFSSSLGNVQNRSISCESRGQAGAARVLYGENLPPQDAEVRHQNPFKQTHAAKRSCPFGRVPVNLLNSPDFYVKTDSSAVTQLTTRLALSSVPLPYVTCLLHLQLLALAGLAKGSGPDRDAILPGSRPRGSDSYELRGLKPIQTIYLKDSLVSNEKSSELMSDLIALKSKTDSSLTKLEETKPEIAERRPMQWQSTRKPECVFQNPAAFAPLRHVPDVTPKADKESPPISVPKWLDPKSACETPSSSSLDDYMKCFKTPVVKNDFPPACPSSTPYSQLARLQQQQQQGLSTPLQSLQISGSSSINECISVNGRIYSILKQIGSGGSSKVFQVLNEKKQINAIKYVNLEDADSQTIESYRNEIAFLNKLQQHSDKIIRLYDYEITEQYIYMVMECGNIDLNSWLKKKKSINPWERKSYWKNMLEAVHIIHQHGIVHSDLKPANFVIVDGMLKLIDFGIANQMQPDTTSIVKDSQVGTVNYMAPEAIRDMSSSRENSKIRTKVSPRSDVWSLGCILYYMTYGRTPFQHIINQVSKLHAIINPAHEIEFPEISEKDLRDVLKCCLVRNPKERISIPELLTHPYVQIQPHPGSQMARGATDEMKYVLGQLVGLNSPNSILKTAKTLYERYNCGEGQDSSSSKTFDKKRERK

| Structure (SMILES) | IC50 |
| --- | --- |
| CC(C)CNc1nccn2c(-c3ccc(C(=O)NC4CC4)cc3)cnc12 | 0.055 µM |
| CC(C)CNc1nc(-c2cccc3ncccc23)cn2c(-c3ccc(C(=O)NC4CC4)cc3)cnc12 | 0.009 µM |
